Reference: patent publication US6525001B1, “Substituted pyrimidine and pyridine herbicides” (Mid-American Commercialization Corporation, priority 1997, dated 2003)

How the values were obtained:
Assay type in all cases: in vivo
Design in all cases: key: 0 is no effect; 10 is complete control
[1] = test system: giant foxtail (Setaria faberii); experiment: Test B pre-/postemergence; conditions: for Plant response rating, Giant foxtail: Preemergence; for Giant foxtail plant response rating: Postemergence
Summary of the method: (§1)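 Compounds in a surfactant-containing, non-phytotoxic solvent blend are applied to freshly planted seed (preemergence) and, concurrently, to seedlings of 2 to 18 cm at 1–4 leaves (postemergence). Plants stay in the greenhouse twelve to sixteen days and are then scored visually from 0 (no effect) to 10 (complete control).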

[2] = test system: pigweed (Amaranthus retroflexus); experiment: Test B pre-/postemergence; conditions: for Plant response rating, Redroot pigweed: Preemergence; for Redroot pigweed plant response rating: Postemergence
Summary of the method: as §1

[3] = test system: soybean (Glycine max); experiment: Test B pre-/postemergence; conditions: for Plant response rating, Soybean: Preemergence; for Soybean plant response rating: Postemergence
Summary of the method: as §1

[4] = test system: velvetleaf (Abutilon theophrasti); experiment: Test B pre-/postemergence; conditions: for Velvetleaf plant response rating: Postemergence
Summary of the method: as §1

[5] = test system: purple nutsedge (Cyperus rotundus); experiment: Test B pre-/postemergence; conditions: for Plant response rating, Nutsedge: Preemergence
Summary of the method: as §1

[6] = test system: crabgrass (Digitaria sanguinalis); experiment: Test B pre-/postemergence; conditions: for Plant response rating, Crabgrass: Preemergence; for Crabgrass plant response rating: Postemergence
Summary of the method: as §1

[7] = test system: corn (Zea mays); experiment: Test B pre-/postemergence; conditions: for Plant response rating, Corn: Preemergence; for Corn plant response rating: Postemergence
Summary of the method: as §1

[8] = test system: wild oat (Avena fatua); experiment: Test B pre-/postemergence; conditions: for Plant response rating, Wild oats: Preemergence; for Wild oats plant response rating: Postemergence
Summary of the method: as §1

[9] = test system: wheat (Triticum aestivum); experiment: Test B pre-/postemergence; conditions: for Plant response rating, Wheat: Preemergence; for Wheat plant response rating: Postemergence
Summary of the method: as §1

[10] = test system: cocklebur (Xanthium strumarium); experiment: Test B pre-/postemergence; conditions: for Plant response rating, Cocklebur: Preemergence; for Cocklebur plant response rating: Postemergence
Summary of the method: as §1

[11] = test system: sugar beet (Beta vulgaris); experiment: Test B pre-/postemergence; conditions: for Plant response rating, Sugarbeets: Preemergence; for Sugarbeets plant response rating: Postemergence
Summary of the method: as §1

[12] = test system: momingglory (Ipomoea hederacea); experiment: Test B pre-/postemergence; conditions: for Plant response rating, Morningglory: Preemergence; for Morningglory plant response rating: Postemergence
Summary of the method: as §1

[13] = test system: blackgrass (Alopecurus myosuroides); experiment: Test B pre-/postemergence; conditions: for Plant response rating, Blackgrass: Preemergence; for Blackgrass plant response rating: Postemergence
Summary of the method: as §1

[14] = test system: bedstraw (Galium aparine); experiment: Test B pre-/postemergence; conditions: for Plant response rating, Bedstraw: Preemergence; for Bedstraw plant response rating: Postemergence
Summary of the method: as §1

[15] = test system: rape (Brassica napus); experiment: Test B pre-/postemergence; conditions: for Plant response rating, Rape: Preemergence; for Rape plant response rating: Postemergence
Summary of the method: as §1

[16] = test system: broadleaf signalgrass (Brachiaria decumbens); experiment: Test B pre-/postemergence
Summary of the method: as §1

[17] = test system: rice (Oryza sativa); experiment: Test B flood test
Summary of the method: (§2)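 Read-out is a visual response score from 0 (no effect) to 10 (complete control), assigned by comparison with untreated controls. Treatment was applied at the 2-leaf stage, and plants stayed in the greenhouse for twelve to sixteen days before scoring.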

[18] = test system: bamyardgrass (Echinochloa crus-galli); experiment: Test B flood test
Summary of the method: as §2

[19] = test system: duck salad (Heteranthera limosa); experiment: Test B flood test
Summary of the method: as §2

[20] = test system: smallflower flatsedge (Cyperus difformis); experiment: Test B flood test
Summary of the method: as §2

[21] = Rate 62 g/ha, Postemergence (flood test)
[22] = Rate 125 g/ha, Postemergence section (flood test species)

CCc1cnc(-n2ccc(C(F)(F)F)n2)nc1C(=O)c1cccc(C(F)(F)F)c1 [Compound 69]
Plant response rating, Giant foxtail ([1]; Rate 62 g/ha, scale of 0 to 10): 4 | Giant foxtail plant response rating ([1]; Rate 62 g/ha): 2 | Giant foxtail plant response rating ([1]; Rate 125 g/ha): 3 | Plant response rating, Giant foxtail ([1]; Rate 125 g/ha): 8 | Plant response rating, Redroot pigweed ([2]; Rate 62 g/ha, scale of 0 to 10): 8 | Redroot pigweed plant response rating ([2]; Rate 62 g/ha): 10 | Redroot pigweed plant response rating ([2]; Rate 125 g/ha): 10 | Plant response rating, Redroot pigweed ([2]; Rate 125 g/ha): 10 | Plant response rating, Soybean ([3]; Rate 62 g/ha, scale of 0 to 10): 0 | Soybean plant response rating ([3]; Rate 62 g/ha): 4 | Soybean plant response rating ([3]; Rate 125 g/ha): 4 | Plant response rating, Soybean ([3]; Rate 125 g/ha): 1 | Velvetleaf plant response rating ([4]; Rate 62 g/ha): 8 | Velvetleaf plant response rating ([4]; Rate 125 g/ha): 8 | Plant response rating, Velvetleaf ([4]; Rate 125 g/ha, Preemergence): 8 | Plant response rating, Nutsedge ([5]; Rate 62 g/ha, scale of 0 to 10): 0 | Nutsedge plant response rating ([5]; Rate 62 g/ha, Postemergence): 2 | Plant response rating, Nutsedge ([5]; Rate 125 g/ha): 0 | Plant response rating, Crabgrass ([6]; Rate 62 g/ha, scale of 0 to 10): 6 | Crabgrass plant response rating ([6]; Rate 62 g/ha): 3 | Crabgrass plant response rating ([6]; Rate 125 g/ha): 4 | Plant response rating, Crabgrass ([6]; Rate 125 g/ha): 9 | Plant response rating, Corn ([7]; Rate 62 g/ha, scale of 0 to 10): 0 | Corn plant response rating ([7]; Rate 62 g/ha): 2 | Corn plant response rating ([7]; Rate 125 g/ha): 2 | Plant response rating, Corn ([7]; Rate 125 g/ha): 0 | Plant response rating, Wild oats ([8]; Rate 62 g/ha, scale of 0 to 10): 4 | Wild oats plant response rating ([8]; Rate 62 g/ha): 3 | Wild oats plant response rating ([8]; Rate 125 g/ha): 3 | Plant response rating, Wild oats ([8]; Rate 125 g/ha): 7 | Plant response rating, Wheat ([9]; Rate 62 g/ha, scale of 0 to 10): 1 | Wheat plant response rating ([9]; Rate 62 g/ha): 3 | Wheat plant response rating ([9]; Rate 125 g/ha): 4 | Plant response rating, Wheat ([9]; Rate 125 g/ha): 1 | Plant response rating, Cocklebur ([10]; Rate 62 g/ha, scale of 0 to 10): 0 | Cocklebur plant response rating ([10]; Rate 62 g/ha): 8 | Cocklebur plant response rating ([10]; Rate 125 g/ha): 8 | Plant response rating, Cocklebur ([10]; Rate 125 g/ha): 2 | Plant response rating, Sugarbeets ([11]; Rate 62 g/ha, scale of 0 to 10): 9 | Sugarbeets plant response rating ([11]; Rate 62 g/ha): 10 | Sugarbeets plant response rating ([11]; Rate 125 g/ha): 10 | Plant response rating, Sugarbeets ([11]; Rate 125 g/ha): 9 | Plant response rating, Morningglory ([12]; Rate 62 g/ha, scale of 0 to 10): 8 | Morningglory plant response rating ([12]; Rate 62 g/ha): 9 | Morningglory plant response rating ([12]; Rate 125 g/ha): 10 | Plant response rating, Morningglory ([12]; Rate 125 g/ha): 8 | Plant response rating, Blackgrass ([13]; Rate 62 g/ha, scale of 0 to 10): 1 | Blackgrass plant response rating ([13]; Rate 62 g/ha): 2 | Blackgrass plant response rating ([13]; Rate 125 g/ha): 3 | Plant response rating, Blackgrass ([13]; Rate 125 g/ha): 4 | Plant response rating, Bedstraw ([14]; Rate 62 g/ha, scale of 0 to 10): 7 | Bedstraw plant response rating ([14]; Rate 62 g/ha): 9 | Bedstraw plant response rating ([14]; Rate 125 g/ha): 9 | Plant response rating, Bedstraw ([14]; Rate 125 g/ha): 9 | Plant response rating, Rape ([15]; Rate 62 g/ha, scale of 0 to 10): 7 | Rape plant response rating ([15]; Rate 62 g/ha): 6 | Rape plant response rating ([15]; Rate 125 g/ha): 8 | Plant response rating, Rape ([15]; Rate 125 g/ha): 8 | B. signalgrass plant response rating ([16]; Rate 62 g/ha, Postemergence): 3 | B. signalgrass plant response rating ([16]; Rate 62 g/ha, Preemergence): 8 | B. signalgrass plant response rating ([16]; Rate 125 g/ha, Postemergence): 3 | Plant response rating, B. signalgrass ([16]; Rate 125 g/ha, Preemergence): 9 | Rice plant response rating [17, 21]: 0 | Rice plant response rating [17, 22]: 2 | Barnyardgrass plant response rating [18, 21]: 1 | Barnyardgrass plant response rating [18, 22]: 2 | Ducksalad plant response rating [19, 21]: 0 | Ducksalad plant response rating [19, 22]: 1 | S. Flatsedge plant response rating [20, 21]: 2 | S. Flatsedge plant response rating [20, 22]: 4
